In patent US20250152605A1, “METHOD AND DRUG FOR TREATING NEURONAL CEROID LIPOFUSCINOSIS” (priority 2021, published 2025):
Entries after “also recorded” stand apart in the source; their conditions may differ.

Legend:
[1] = molecular target: T1, KEAP1 protein (Homo sapiens, UniProt Q14145); experiment: Quantitative thiol reactivity analysis; format: binding; conditions: CLN3^Δex7/8 human neural stem cells, 30 μM, 2 hours, mass spectrometry
T1 construct: mass spectrometry was used to analyze the thiol reactivity of the cysteine residues on KEAP1 in the lysate; endogenous in cells; host or cells: CLN3 Δex7/8 human neural stem cells differentiated from H9 human embryonic stem cells
Protocol: To determine the protein covalently bound to Compound G, a Compound G-binding proteomic analysis with the following steps was performed: neural stem cells were cultured in 10 cm cell culture dishes to a cell density of 90%. 1-2 mg of protein could be obtained after the neural stem cells in a 10 cm cell culture dish are lysed; the supernatant was aspirated, fresh medium containing 30 μM Compound G or medium containing an equal volume of solvent DMSO was added, followed by incubation in a cell culture incubator at 37° C. for 2 hours; the cell medium was aspirated followed by washing once with 10 mL of dPBS, and the aspiration should be as clean as possible.
The cell culture dish was placed on ice and added with RIPA cell lysis buffer with protease inhibitors and phosphatase inhibitors (for the formulation, please refer to the flow cytometry analysis and sorting section); all cells were scraped off on ice using a cell scraper and collected into 1.5 mL EP tubes; the sample was placed on ice and ultrasonically broken with an ultrasonic power of 20% and with ultrasound 5 times for 3 seconds each time; ENE probe at a final concentration of 100 μM was added to each sample, followed by incubation for 1 hour in the dark while rotating. ENE could react with sulfhydryl groups in protein cysteine residues to produce stable thioether bonds. […]

[2] = tested on: Cln3 KO mice; experiment: Body weight, brain tissue mass and toxicity in Cln3 KO mice
Protocol: The control group was Cln3 KO mice whose drinking water contained an equal amount of solvent. Body weight changes were recorded during administration.
Starting from day 21 on which the mice were weaned, Compound G or the solvent was added to the drinking water of Cln3 KO mice, and the weight changes of the mice were recorded. […] When the mice reached six months of age, they were euthanized and the brain tissues were taken out and weighed.

[3] = tested on: CLN3^Δex7/8 neurons; experiment: Mitochondrial morphology with OMP25-GFP, laser confocal microscope; format: cell-based, human
Excerpt: Studies have shown that healthy mitochondria have a short stick-like morphology, with large potential differences across the mitochondrial membrane, which allows efficient generation of ATP that maintains normal cellular function. Damaged mitochondria undergo the process of mitochondrial fission, in which the mitochondria split into a punctate morphology, encapsulated by autophagosome, and transported into lysosomes for degradation. To detect the presence of abnormal mitochondrial morphology in CLN3^Δex7/8 human neurons, a Lentivirus plasmid with green fluorescent protein labeled OMP25 was constructed and used to infect wild-type and CLN3^Δex7/8 human neurons
To test the effect of compound G on mitochondrial homeostasis in CLN3^Δex7/8 neurons, fluorescently labeled mitochondrial outer membrane protein OMP25-GFP was overexpressed in neurons, and the morphological changes of mitochondria were observed by laser confocal microscope. […] The amount of ATP generation in the same number of neurons was tested using Cell Titer Glo reagent.

[4] = tested on: CLN3^Δex7/8 neural stem cells; experiment: Annexin V and propidium iodide apoptosis staining, flow cytometry; format: cell-based, human; conditions: treatment for 48 hours
Protocol: In analyzing the mean fluorescence intensity of neural stem cells and neuronal staining or single cell establishment of NRK cells, flow cytometry was used: the cell medium was aspirated off, after wash with dPBS once, the digestive enzyme corresponding to the cell type was added to digest into single cells; the supernatant was removed by centrifugation, and the cells were resuspended with 1 mL of fresh medium; the cell suspension with filtered through 40 μm filter membrane and the single cell filtrate was collected; the single cell filtrate was transferred to a flow tube and analyzed or sorted using BD FACS Aria III; in the analysis, the fluorescence intensity of 1×10^4 cells for each sample was analyzed to obtain the mean fluorescence intensity (MFI); for sorting, cells were received in 96 well plates with medium, one cell per well to establish a cell line.
Then, whether compound G causes cytotoxicity in neural stem cells was examined. Cell apoptosis was detected after compound G treatment with Annexin V and propidium iodide (PI) staining and analyzed with flow cytometry. Annexin V positive and PI negative represented early apoptotic cells, while Annexin V positive and PI positive represented late apoptotic cells.

[5] = tested on: CLN3^Δex7/8 human neural stem cells; experiment: qRT-PCR of autophagy-related and lysosomal genes in human neural stem cells; format: cell-based; conditions: 6 hours
Protocol: The cells in the cell-culture dish were collected, extracted using AxyPrep Total RNA Mini Prep Kit or Qiagen AxyPrep Total RNA Mini Prep Kit, and the extracted RNA concentration is measured using Nanodrop; the extracted mRNA was reverse transcribed into cDNA by Transgen's EasyScript® One-Step gDNA Removal and cDNA Synthesis SuperMix and the primers used for reverse transcription were Oligo dT primers; the completion of reverse transcription followed by qRT-PCR reaction through PerfectStart™ Green qPCR SuperMix to detect the expression of the target gene; the qRT-PCR reaction was performed on the Bio-Rad CFX96 Real-Time PCR system; see Table 2 and Table 3 for the 20 μL qRT-PCR reaction system and reaction procedures; data analysis was performed in Prism 7 software using the 2^−ΔΔCt process with GAPDH as internal reference for relative quantification of the expression of the target gene.
The effect of Compound G on the transcription level of the autophagy-related genes and the lysosomal genes was further detected in the induced CLN3^Δex7/8 human neural stem cells and neurons.

T1 sequence (Q14145 whole entry): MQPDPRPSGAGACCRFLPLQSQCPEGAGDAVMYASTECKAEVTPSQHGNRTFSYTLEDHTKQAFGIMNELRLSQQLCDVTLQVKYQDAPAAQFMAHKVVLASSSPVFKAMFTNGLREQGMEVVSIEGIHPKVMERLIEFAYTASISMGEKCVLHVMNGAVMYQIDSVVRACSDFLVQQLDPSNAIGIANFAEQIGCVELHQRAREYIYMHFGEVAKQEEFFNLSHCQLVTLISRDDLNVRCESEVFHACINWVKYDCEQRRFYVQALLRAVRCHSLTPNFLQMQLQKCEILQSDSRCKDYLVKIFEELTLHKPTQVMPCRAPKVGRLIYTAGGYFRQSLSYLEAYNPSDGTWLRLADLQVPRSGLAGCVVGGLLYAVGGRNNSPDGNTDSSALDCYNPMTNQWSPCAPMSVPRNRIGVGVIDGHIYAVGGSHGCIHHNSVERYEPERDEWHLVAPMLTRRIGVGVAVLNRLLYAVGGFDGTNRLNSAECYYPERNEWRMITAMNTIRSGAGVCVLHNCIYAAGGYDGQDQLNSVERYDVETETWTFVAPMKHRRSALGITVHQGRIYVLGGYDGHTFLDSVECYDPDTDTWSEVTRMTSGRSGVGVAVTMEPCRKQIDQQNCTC

C/C=C1\C(=O)C[C@H]2[C@@H]3CCC4=CC(=O)CC[C@]4(C)[C@H]3CC[C@]12C [Compound G, (Z)-guggulsterone]
thiol reactivity of the cysteine residues on KEAP1 [1]: reduce the thiol reactivity of cysteine residue 288
body weight of mice ([2]; 2 or 6 months old, drinking water from day 21): no significant effect
mass of the mice brain tissue ([2]; 6 months of age): no significant effect
damaged punctate mitochondria [3]: significantly reduce the occurrence of damaged punctate mitochondria; also recorded: significantly reduce the appearance of the damaged mitochondria
proportions of apoptotic cells (Annexin V / PI) [4]: did not significantly change the proportions of apoptotic cells
transcription level of the autophagy-related genes or the lysosomal genes [5]: did not significantly increase
